The source of these data is ChEMBL document CHEMBL1201862, “PubChem BioAssay data set” (2004).

SMILES strings stand for the structures.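 1) Cells in 96-well plates. 2) Compound, 48 h, 5 concentrations. 3) Linear interpolation between surrounding doses. 4) Unreached endpoint = highest concentration. Here, GI50 denotes the concentration required for 50% inhibition of growth.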 Activity calls are given as the source filed them. Cut-off read from the data, not from the text of the source: active = GI50 up to about 1.1 µM and inactive = higher. A value given as a limit tells only on which side of the number the result lay.

Common to all, as to assay: inhibition of tumour cell growth, NCI panel, 48 h
The test system of assay [1] is HCT-15.
The subject of assay [2] is CAKI-1.
Assay [3] concerns LXFL 529.
The subject of assay [4] is MOLT-4.
In assay [5] the test system is IGROV-1.
The test system of assay [6] is SF-295.
The test system of assay [7] is SF-539.
In assay [8] the test system is M14.
Assay [9] has as its system SF-268.
Assay [10] relates to TK-10.
In assay [11] the test system is NCI-H522.
Assay [12] has as its system HT-29.
Assay [13] relates to A498.
In assay [14] the test system is OVCAR-8.
In assay [15] the test system is HOP-92.
The test system of assay [16] is U-251.
For assay [17], the system named is A549.
Assay [18] deals with SR.
For assay [19], the system named is KM12.
The subject of assay [20] is ACHN.

Turning to `COc1cc2c([C@@H](OC(=O)c3ccccc3)c3ccc4c(c3)OCO4)nccc2c(OC)c1OC`, the GI50 in assay [1] was 37.6 µM; in [2], 9.31 µM (inactive); in assay [3], 16.7 µM (inactive); in assay [4], 13.5 µM (inactive); in assay [5], > 100 µM (inactive); in [6], 44.3 µM (inactive). In addition, the GI50 was 82.2 µM (inactive) in [7]; 53.6 µM (inactive) in assay [8]; 48.8 µM (inactive) in [9]; 75.9 µM (inactive) in assay [10]; 19.4 µM (inactive) in assay [11]; 67.3 µM (inactive) in assay [12]. The GI50 in [13] was 32.2 µM (inactive); in assay [14], 49.5 µM (inactive); in assay [15] it was 65.5 µM (inactive); in assay [16], 61.7 µM (inactive); in assay [17], 17.3 µM (inactive); in assay [18] it was 17.8 µM (inactive).

As for `CN(C)CCNC(=O)c1ccc(Cl)c2c(Nc3ccc(S(N)(=O)=O)cc3)c3ccccc3nc12`, the GI50 is 2.84 µM in [1]; 4.54 µM (inactive) in assay [2]; 0.564 µM (active) in assay [3]; 0.198 µM (active) in [4]; 2.72 µM (inactive) in assay [5]; 3.41 µM (inactive) in assay [6]. Further, the GI50 in assay [7] was 1.21 µM (inactive); in assay [8] it was 2.34 µM (inactive); in assay [9], 1.41 µM (inactive); in assay [10] it was 2.95 µM (inactive); in [11], 0.462 µM (active); in assay [12], 1.2 µM (inactive). Further, the GI50 in [13] is 2.72 µM (inactive); in [19], 1.39 µM (inactive); in assay [14], 0.65 µM (active); in [15], 1.43 µM (inactive); in assay [16] it was 2.16 µM (inactive); in assay [17], 2.64 µM (inactive). Besides, the GI50 in [20] is 1.67 µM (inactive); in assay [18] it was 0.151 µM (active).

For `CC12C=CC(=O)C=C1CCC1C3CCC(O)(C(=O)CO)C3(C)CC(O)C12F` (centres undefined), the GI50 is greater than 100 µM in [1]; > 100 µM (inactive) in assay [2]; > 100 µM (inactive) in assay [3]; > 100 µM (inactive) in assay [4]; > 100 µM (inactive) in assay [5]; > 100 µM (inactive) in [6]. The GI50 in [7], in [8], in assay [9], in assay [10], in assay [11] and in assay [12] was > 100 µM (inactive) each time. The GI50 in assay [13], in assay [19], in assay [14], in [15], in assay [16] and in assay [17] was > 100 µM (inactive) in each case. Moreover, the GI50 in assay [20] and in [18] was > 100 µM (inactive) each time.

Regarding `CN(C)P(=O)(/C(N)=N/Nc1ccc([N+](=O)[O-])cc1)N(C)C`, the GI50 in assay [1] is greater than 100 µM; in assay [2] it was > 100 µM (inactive); in assay [3], > 100 µM (inactive); in [4], > 100 µM (inactive); in [7], > 100 µM (inactive); in assay [8] it was > 100 µM (inactive). Moreover, the GI50 in assay [9] is > 100 µM (inactive); in [10] it was > 100 µM (inactive); in [11], 48 µM (inactive); in assay [13], 0.558 µM (active); in [19], > 100 µM (inactive); in assay [14] it was > 100 µM (inactive). The GI50 is 41.4 µM (inactive) in assay [15]; > 100 µM (inactive) in assay [16]; > 100 µM (inactive) in [17]; > 100 µM (inactive) in [20]; > 100 µM (inactive) in [18].

Turning to `c1cncc(C2c3[nH]c4ccccc4c3CCN2CCN2CCCCC2)c1` (centres undefined), the GI50 is greater than 100 µM in [1]; > 100 µM (inactive) in assay [2]; > 100 µM (inactive) in [3]; > 100 µM (inactive) in assay [4]; > 100 µM (inactive) in assay [5]; > 100 µM (inactive) in [6]. Moreover, the GI50 is > 100 µM (inactive) in [7]; 16.1 µM (inactive) in [8]; > 100 µM (inactive) in [9]; > 100 µM (inactive) in assay [10]; > 100 µM (inactive) in assay [11]; > 100 µM (inactive) in assay [12]. The GI50 is 70.8 µM (inactive) in assay [13]; > 100 µM (inactive) in [19]; > 100 µM (inactive) in assay [14]; 30 µM (inactive) in assay [15]; > 100 µM (inactive) in [16]; > 100 µM (inactive) in assay [17]. Further, the GI50 in assay [20] and in [18] was > 100 µM (inactive) throughout.

Consider `CC12CCC([C@H](N3CCOCC3)/C1=N\OCCN1CCCC1)C2(C)C` (some centres undefined), for which the GI50 in assay [1] is greater than 100 µM; in assay [2] it was > 100 µM (inactive); in [3], > 100 µM (inactive); in assay [4], > 100 µM (inactive); in assay [5], > 100 µM (inactive); in [6], > 100 µM (inactive). The GI50 in [7], in [8], in [9], in assay [10], in assay [11] and in assay [12] was > 100 µM (inactive) throughout. Further, the GI50 in [13], in assay [19], in assay [14], in assay [15], in assay [16] and in [17] was > 100 µM (inactive) throughout. Also, the GI50 in [20] and in [18] was > 100 µM (inactive) in each case.

`CC1=Nc2ccccc2S(=O)(=O)N1`: the GI50 was greater than 100 µM in [1]; > 100 µM (inactive) in assay [2]; > 100 µM (inactive) in assay [3]; > 100 µM (inactive) in [4]; > 100 µM (inactive) in [5]; > 100 µM (inactive) in [6]. Moreover, the GI50 in [7], in assay [8], in [9], in [10], in assay [11] and in assay [12] was > 100 µM (inactive) throughout. Further, the GI50 in [13], in [19], in [14], in assay [15], in assay [16] and in [17] was > 100 µM (inactive) throughout. For the same compound, the GI50 in assay [20] and in assay [18] was > 100 µM (inactive) each time.

On to `COc1cc(C(=O)C/C(CCC(=O)Nc2ccc(Cl)cc2Cl)=N/Nc2nnc(C)n2N)ccc1O`, for which the GI50 is greater than 100 µM in [1]; 45.9 µM (inactive) in assay [2]; > 100 µM (inactive) in [3]; > 100 µM (inactive) in assay [5]; > 100 µM (inactive) in assay [6]; > 100 µM (inactive) in assay [7]. The GI50 in assay [8] is > 100 µM (inactive); in assay [9], > 100 µM (inactive); in [10] it was > 100 µM (inactive); in assay [11], > 100 µM (inactive); in assay [12], > 100 µM (inactive); in assay [13], 92.7 µM (inactive). Further, the GI50 in assay [19], in assay [14], in assay [15], in assay [16], in assay [17] and in assay [20] was > 100 µM (inactive) throughout. Moreover, in [18], the GI50 was > 100 µM (inactive).
